Measured values: patent US12673945B2, “3-((8-((1H-pyrazol-4-yl)amino)imidazo[1,2-a]pyridin-3-yl)ethinyl)-n-phenylbenzamide derivative, method for preparing same, and pharmaceutical composition containing same as active ingredient for prevention or treatment of cancer” (DAEGU-GYEONGBUK MEDICAL INNOVATION FOUNDATION, priority 2020, dated 2026)

Tests used:
Assay type in all cases: cell-based
T315I-Bcr-Abl (Ba/F3) = assay: Ba/F3 cell proliferation inhibition; settings: BaF3; 72 hours, Cell Counting Kit-8
In short: (§1)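 GI50 derived from CCK-8 absorbance at 450 nm (2 h development), expressed relative to DMSO vehicle. Cells (parental or T315I-Bcr-Abl Ba/F3, 1×10^4/well) received nine threefold-diluted concentrations, final 0 to 10 μM, for 72 h at 37 °C.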

Parental (Ba/F3) = assay: Ba/F3 cell proliferation inhibition; settings: BaF3; 72 hours, Cell Counting Kit-8
In short: as §1

T315I-KOPM28 cells = assay: human CML cell proliferation inhibition; settings: 72 hours, Cell Counting Kit-8
In short: (§2)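 TCCS and KOPM28 (Bcr-Abl) and their T315I-mutant counterparts, 1×10^4 cells/well, exposed 72 h at 37 °C to 9 fivefold dilutions of compound, final up to 10 μM. Viability by CCK-8 absorbance at 450 nm after 2 h; GI50 from percentage of vehicle.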

KOPM28 cells = assay: human CML cell proliferation inhibition; settings: 72 hours, Cell Counting Kit-8
In short: as §2

TCCS cells = assay: human CML cell proliferation inhibition; settings: 72 hours, Cell Counting Kit-8
In short: as §2

T315I-TCCS cells = assay: human CML cell proliferation inhibition; settings: 72 hours, Cell Counting Kit-8
In short: as §2

GI50 (T315I-Bcr-Abl (Ba/F3)) [nM]	Compound	GI50 (Parental (Ba/F3)) [nM]	GI50 (T315I-KOPM28 cells) [nM]	GI50 (KOPM28 cells) [nM]	GI50 (TCCS cells) [nM]	GI50 (T315I-TCCS cells) [nM]
< 50	Cc1cn(-c2cc(NC(=O)c3ccc(C)c(C#Cc4cnc5c(Nc6cnn(C)c6)cccn45)c3F)cc(C(C)(C)C#N)c2)cn1 [Example 3, N-(3-(2-cyanopropan-2-yl)-5-(4-methyl-1H-imidazol-1-yl)phenyl)-2-fluoro-4-methyl-3-((8-((1-methyl-1H-pyrazol-4-yl)amino)imidazo[1,2-a]pyridin-3-yl)ethynyl)benzamide]	> 5000	100	< 10	< 10	100
50 to 500	Cc1cc(F)c(C(=O)Nc2cc(CN3CCN(C)CC3)cc(C(F)(F)F)c2)cc1C#Cc1cnc2c(Nc3cn[nH]c3)cccn12 [Example 104, 5-((8-((1H-pyrazol-4-yl)amino)imidazo[1,2-a]pyridin-3-yl)ethynyl)-2-fluoro-4-methyl-N-(3-((4-methylpiperazin-1-yl)methyl)-5-(trifluoromethyl)phenyl)benzamide]	500 to 5000	> 100	< 10	< 10	100
50 to 500	Cc1cc(F)c(C(=O)Nc2cc(Cn3cncn3)cc(C(F)(F)F)c2)cc1C#Cc1cnc2c(Nc3cn[nH]c3)cccn12 [Example 108, N-(3-((1H-1,2,4-triazol-1-yl)methyl)-5-(trifluoromethyl)phenyl)-5-((8-((1H-pyrazol-4-yl)amino)imidazo[1,2-a]pyridin-3-yl)ethynyl)-2-fluoro-4-methylbenzamide]	> 5000	> 100	< 10	< 10	100
< 50	Cc1cn(-c2cc(NC(=O)c3cc(F)c(C)c(C#Cc4cnc5c(Nc6cnn(C)c6)cccn45)c3)cc(C(C)(C)C#N)c2)cn1 [Example 2, N-(3-(2-cyanopropan-2-yl)-5-(4-methyl-1H-imidazol-1-yl)phenyl)-3-fluoro-4-methyl-5-((8-((1-methyl-1H-pyrazol-4-yl)amino)imidazo[1,2-a]pyridin-3-yl)ethynyl)benzamide]	> 5000	100	< 10	< 10	< 10
50 to 500	Cc1cc(F)c(C(=O)Nc2ccc(CN3CCN(CCO)CC3)c(C(F)(F)F)c2)cc1C#Cc1cnc2c(Nc3cn[nH]c3)cccn12 [Example 111, 5-((8-((1H-pyrazol-4-yl)amino)imidazo[1,2-a]pyridin-3-yl)ethynyl)-2-fluoro-N-(4-((4-(2-hydroxyethyl)piperazin-1-yl)methyl)-3-(trifluoromethyl)phenyl)-4-methylbenzamide]	500 to 5000	< 10	< 10	< 10	< 10
50 to 500	Cc1cc(F)c(C(=O)Nc2cc(-c3cccnc3)cc(C(F)(F)F)c2)cc1C#Cc1cnc2c(Nc3cn[nH]c3)cccn12 [Example 98, 5-((8-((1H-pyrazol-4-yl)amino)imidazo[1,2-a]pyridin-3-yl)ethynyl)-2-fluoro-4-methyl-N-(3-(pyridin-3-yl)-5-(trifluoromethyl)phenyl)benzamide]	> 5000	> 100	< 10	< 10	100
50 to 500	Cc1cc(F)c(C(=O)Nc2cc(N(C)CCCN(C)C)cc(C(C)(C)C#N)c2)cc1C#Cc1cnc2c(Nc3cnn(C)c3)cccn12 [Example 23, N-(3-(2-cyanopropan-2-yl)-5-((3-(dimethylamino)propyl)(methyl)amino)phenyl)-2-fluoro-4-methyl-5-((8-((1-methyl-1H-pyrazol-4-yl)amino)imidazo[1,2-a]pyridin-3-yl)ethynyl)benzamide]	500 to 5000	> 100	< 10	< 10	> 100
50 to 500	Cc1cc(F)c(C(=O)Nc2cc(-c3ccncc3)cc(C(C)(C)C#N)c2)cc1C#Cc1cnc2c(Nc3cnn(C)c3)cccn12 [Example 17, N-(3-(2-cyanopropan-2-yl)-5-(pyridin-4-yl)phenyl)-2-fluoro-4-methyl-5-((8-((1-methyl-1H-pyrazol-4-yl)amino)imidazo[1,2-a]pyridin-3-yl)ethynyl)benzamide]	> 5000	100	< 10	< 10	100
50 to 500	Cc1cc(F)c(C(=O)Nc2cc(-c3cnn(C)c3)cc(C(C)(C)C#N)c2)cc1C#Cc1cnc2c(Nc3cn[nH]c3)cccn12 [Example 77, 5-((8-((1H-pyrazol-4-yl)amino)imidazo[1,2-a]pyridin-3-yl)ethynyl)-N-(3-(2-cyanopropan-2-yl)-5-(1-methyl-1H-pyrazol-4-yl)phenyl)-2-fluoro-4-methylbenzamide]	> 5000	> 100	< 10	< 10	100
50 to 500	Cc1cc(F)c(C(=O)Nc2cc(Cn3ccnc3)cc(C(C)(C)C#N)c2)cc1C#Cc1cnc2c(Nc3cnn(C)c3)cccn12 [Example 37, N-(3-((1H-imidazol-1-yl)methyl)-5-(2-cyanopropan-2-yl)phenyl)-2-fluoro-4-methyl-5-((8-((1-methyl-1H-pyrazol-4-yl)amino)imidazo[1,2-a]pyridin-3-yl)ethynyl)benzamide]	> 5000	100	< 10	< 10	100
500 to 5000	Cc1cc(F)c(C(=O)Nc2ccc(CN3CCN(S(C)(=O)=O)CC3)c(C(C)(C)C#N)c2)cc1C#Cc1cnc2c(Nc3cn[nH]c3)cccn12 [Example 94, 5-((8-((1H-pyrazol-4-yl)amino)imidazo[1,2-a]pyridin-3-yl)ethynyl)-N-(3-(2-cyanopropan-2-yl)-4-((4-(methylsulfonyl)piperazin-1-yl)methyl)phenyl)-2-fluoro-4-methylbenzamide]	> 5000	> 100	< 10	< 10	> 100
< 50	Cc1cc(F)c(C(=O)Nc2cc(CN3CCN(CCO)CC3)cc(C(C)(C)C#N)c2)cc1C#Cc1cnc2c(Nc3cn[nH]c3)cccn12 [Example 86, 5-((8-((1H-pyrazol-4-yl)amino)imidazo[1,2-a]pyridin-3-yl)ethynyl)-N-(3-(2-cyanopropan-2-yl)-5-((4-(2-hydroxyethyl)piperazin-1-yl)methyl)phenyl)-2-fluoro-4-methylbenzamide]	500 to 5000	100	< 10	< 10	100
50 to 500	Cc1cc(F)c(C(=O)Nc2cc(N3CCN(C)C(=O)C3)cc(C(C)(C)C#N)c2)cc1C#Cc1cnc2c(Nc3cn[nH]c3)cccn12 [Example 82, 5-((8-((1H-pyrazol-4-yl)amino)imidazo[1,2-a]pyridin-3-yl)ethynyl)-N-(3-(2-cyanopropan-2-yl)-5-(4-methyl-3-oxopiperazin-1-yl)phenyl)-2-fluoro-4-methylbenzamide]	500 to 5000	> 100	< 10	< 10	100
